This note sets out measurements from paper PMC3331904 (2012).

The assay deals with TORC1 (TOR complex 1 kinase) (Saccharomyces cerevisiae, UniProt P35169). Put plainly: TORC1 in vitro kinase assay. In kind it is biochemical.

SMILES strings stand for the structures.

TORC1 (TOR complex 1 kinase), sequence (P35169 whole entry): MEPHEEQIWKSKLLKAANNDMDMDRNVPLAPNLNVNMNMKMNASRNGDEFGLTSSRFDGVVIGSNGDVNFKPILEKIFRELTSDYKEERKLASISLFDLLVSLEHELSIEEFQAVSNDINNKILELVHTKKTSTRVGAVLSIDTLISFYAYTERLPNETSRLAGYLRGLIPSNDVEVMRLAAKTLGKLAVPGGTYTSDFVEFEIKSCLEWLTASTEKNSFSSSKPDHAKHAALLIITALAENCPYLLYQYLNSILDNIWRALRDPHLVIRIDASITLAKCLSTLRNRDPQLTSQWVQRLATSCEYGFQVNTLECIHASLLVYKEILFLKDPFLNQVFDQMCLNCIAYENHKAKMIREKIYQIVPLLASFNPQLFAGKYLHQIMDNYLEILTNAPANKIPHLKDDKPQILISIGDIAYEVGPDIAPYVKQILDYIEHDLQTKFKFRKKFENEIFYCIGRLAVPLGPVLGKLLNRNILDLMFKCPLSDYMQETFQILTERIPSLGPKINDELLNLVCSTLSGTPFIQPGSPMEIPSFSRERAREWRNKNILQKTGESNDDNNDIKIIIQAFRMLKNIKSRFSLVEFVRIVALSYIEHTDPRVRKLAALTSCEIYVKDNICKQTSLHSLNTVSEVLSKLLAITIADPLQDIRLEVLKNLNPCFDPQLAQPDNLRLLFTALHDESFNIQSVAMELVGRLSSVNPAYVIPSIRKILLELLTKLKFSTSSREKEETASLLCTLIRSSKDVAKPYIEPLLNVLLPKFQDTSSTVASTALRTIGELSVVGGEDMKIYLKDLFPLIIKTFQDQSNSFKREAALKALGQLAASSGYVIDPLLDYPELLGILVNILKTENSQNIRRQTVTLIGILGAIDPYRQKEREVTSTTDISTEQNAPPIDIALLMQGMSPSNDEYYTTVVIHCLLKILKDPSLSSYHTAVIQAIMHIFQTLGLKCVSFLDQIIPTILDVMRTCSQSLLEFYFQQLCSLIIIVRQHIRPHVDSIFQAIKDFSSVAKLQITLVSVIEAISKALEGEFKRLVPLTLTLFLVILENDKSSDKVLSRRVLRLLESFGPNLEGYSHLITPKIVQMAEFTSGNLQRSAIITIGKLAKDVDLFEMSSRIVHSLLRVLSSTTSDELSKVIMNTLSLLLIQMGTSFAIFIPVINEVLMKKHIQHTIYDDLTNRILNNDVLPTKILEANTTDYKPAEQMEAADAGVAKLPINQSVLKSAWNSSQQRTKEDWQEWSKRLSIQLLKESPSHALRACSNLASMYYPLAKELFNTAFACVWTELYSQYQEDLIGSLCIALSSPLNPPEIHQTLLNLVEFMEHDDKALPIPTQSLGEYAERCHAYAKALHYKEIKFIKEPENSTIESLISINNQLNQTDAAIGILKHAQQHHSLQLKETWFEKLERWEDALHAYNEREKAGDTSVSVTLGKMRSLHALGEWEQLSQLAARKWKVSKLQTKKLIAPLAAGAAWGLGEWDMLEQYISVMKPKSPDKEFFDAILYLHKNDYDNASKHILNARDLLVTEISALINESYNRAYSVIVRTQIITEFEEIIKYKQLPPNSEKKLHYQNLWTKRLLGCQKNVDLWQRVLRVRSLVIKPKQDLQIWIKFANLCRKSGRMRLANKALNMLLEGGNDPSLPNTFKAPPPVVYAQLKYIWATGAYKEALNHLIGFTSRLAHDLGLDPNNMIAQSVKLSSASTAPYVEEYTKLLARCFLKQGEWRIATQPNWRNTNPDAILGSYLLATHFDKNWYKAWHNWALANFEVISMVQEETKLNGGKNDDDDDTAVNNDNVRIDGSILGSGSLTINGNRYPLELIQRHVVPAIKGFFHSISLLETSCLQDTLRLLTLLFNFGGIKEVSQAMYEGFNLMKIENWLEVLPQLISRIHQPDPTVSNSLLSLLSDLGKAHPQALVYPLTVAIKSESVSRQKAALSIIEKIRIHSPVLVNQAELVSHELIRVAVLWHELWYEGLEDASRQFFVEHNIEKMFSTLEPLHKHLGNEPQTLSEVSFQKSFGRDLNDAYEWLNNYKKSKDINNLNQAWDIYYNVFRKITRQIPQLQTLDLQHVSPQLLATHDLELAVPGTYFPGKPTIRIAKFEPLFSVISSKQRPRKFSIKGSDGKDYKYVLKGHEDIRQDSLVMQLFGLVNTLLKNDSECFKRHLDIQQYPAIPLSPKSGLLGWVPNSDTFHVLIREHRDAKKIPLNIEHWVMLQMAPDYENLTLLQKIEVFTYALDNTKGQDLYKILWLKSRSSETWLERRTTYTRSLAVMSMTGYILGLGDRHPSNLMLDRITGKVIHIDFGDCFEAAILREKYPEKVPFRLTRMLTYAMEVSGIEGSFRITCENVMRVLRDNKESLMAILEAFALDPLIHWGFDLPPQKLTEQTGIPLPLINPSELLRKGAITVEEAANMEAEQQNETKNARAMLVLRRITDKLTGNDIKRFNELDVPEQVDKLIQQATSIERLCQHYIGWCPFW
TORC1 (TOR complex 1 kinase), sequence (P38873 whole entry partner): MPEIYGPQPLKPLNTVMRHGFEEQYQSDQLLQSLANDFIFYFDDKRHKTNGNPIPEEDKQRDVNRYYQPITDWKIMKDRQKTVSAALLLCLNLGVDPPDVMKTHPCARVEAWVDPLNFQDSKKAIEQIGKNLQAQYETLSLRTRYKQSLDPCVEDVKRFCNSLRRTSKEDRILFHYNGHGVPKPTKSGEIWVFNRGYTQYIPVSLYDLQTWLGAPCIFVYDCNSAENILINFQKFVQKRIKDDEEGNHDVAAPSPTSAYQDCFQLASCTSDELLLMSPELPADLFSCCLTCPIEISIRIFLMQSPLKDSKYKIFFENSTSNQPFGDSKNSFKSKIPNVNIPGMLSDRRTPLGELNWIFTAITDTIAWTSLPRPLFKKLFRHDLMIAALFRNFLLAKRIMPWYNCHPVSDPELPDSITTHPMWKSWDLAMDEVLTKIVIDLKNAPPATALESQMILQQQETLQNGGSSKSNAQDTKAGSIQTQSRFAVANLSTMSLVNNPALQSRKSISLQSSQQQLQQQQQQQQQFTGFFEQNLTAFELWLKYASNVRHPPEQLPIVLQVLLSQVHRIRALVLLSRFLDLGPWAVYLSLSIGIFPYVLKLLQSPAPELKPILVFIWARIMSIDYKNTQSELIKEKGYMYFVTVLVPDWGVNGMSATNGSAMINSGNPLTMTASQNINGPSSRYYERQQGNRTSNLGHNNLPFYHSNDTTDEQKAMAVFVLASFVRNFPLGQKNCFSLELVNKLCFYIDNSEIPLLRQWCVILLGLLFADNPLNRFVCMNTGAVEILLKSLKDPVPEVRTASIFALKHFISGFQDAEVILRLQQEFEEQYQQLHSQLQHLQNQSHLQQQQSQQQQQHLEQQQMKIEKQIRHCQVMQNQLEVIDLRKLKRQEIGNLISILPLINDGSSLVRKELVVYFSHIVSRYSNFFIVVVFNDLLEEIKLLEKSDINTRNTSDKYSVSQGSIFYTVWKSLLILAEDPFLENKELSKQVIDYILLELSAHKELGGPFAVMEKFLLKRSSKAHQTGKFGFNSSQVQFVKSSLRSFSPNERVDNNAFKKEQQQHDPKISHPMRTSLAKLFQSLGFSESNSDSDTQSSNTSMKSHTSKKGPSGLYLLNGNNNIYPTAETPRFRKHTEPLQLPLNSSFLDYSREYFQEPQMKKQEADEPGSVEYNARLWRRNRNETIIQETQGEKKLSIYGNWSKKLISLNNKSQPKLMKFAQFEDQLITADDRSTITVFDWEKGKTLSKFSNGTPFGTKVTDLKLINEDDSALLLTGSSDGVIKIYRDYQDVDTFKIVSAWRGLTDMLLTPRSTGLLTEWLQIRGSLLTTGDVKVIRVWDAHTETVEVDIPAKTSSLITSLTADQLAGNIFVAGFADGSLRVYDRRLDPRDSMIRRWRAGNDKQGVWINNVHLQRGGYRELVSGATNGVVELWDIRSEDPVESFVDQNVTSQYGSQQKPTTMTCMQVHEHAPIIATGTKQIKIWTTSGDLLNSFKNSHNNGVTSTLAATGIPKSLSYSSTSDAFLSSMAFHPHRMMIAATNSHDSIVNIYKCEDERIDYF

As for `CNc1nc(N)c([N+](=O)[O-])c(Nc2cccc(F)c2)n1` [CID 3528206], the IC50 is ~150 nM.

What is called IC50 is the concentration needed to halve the response being measured.
